Source: PMC5225183, “Fingerprinting of neurotoxic compounds using a mouse embryonic stem cell dual luminescence reporter assay” (Archives of Toxicology, 2016)
Read-outs that look alike come from different tables or passages of the source. Marks after values point to notes of the source that are not given here.

How the values were obtained:
[1] = test system: ESC-derived neurons
Description: (§1) Fig. 1 Synopsis of experimental protocols. The impact of compounds on neural promoter activity (FLuc, Firefly Luciferase under the control of the Tα1 promoter), general promoter activity (RLuc, Renilla Luciferase under the control of the EF1α promoter), and amount of DNA (PI, propidium iodide fluorescence in cell homogenates) was investigated in undifferentiated mouse embryonic pluripotent stem cells (ESCs) and on ESC-derived neurons. Arrows indicate the time of measurement of the three parameters. a Protocol for testing compounds effects on ESCs. CGR8-2Luc cells were plated on gelatin-coated 96-well plates in maintenance medium (BHK21 medium containing 10 % FCS, L-glutamine, NEAA, P/S, and LIF). Twenty-four hours later, cells were exposed to compounds for forty-eight hours. b Protocol for testing compounds on ESC-derived neurons. CGR8-2Luc cells were co-cultured with MS5 cells to induce neural differentiation in DMEM medium containing 15 % KO-serum, NEAA, β-mercaptoethanol, and P/S. On day 5, cells were detached and seeded on polyornithine-coated plates in DMEM medium containing N2 supplement, bFGF, and P/S; compound exposure was from day 6 to day 8
(§2) To test compounds on ESC-derived neurons, neuronal differentiation was carried out as previously described (Suter et al. [2009]; Xu et al. [2014]). Briefly, CGR8-2Luc cells were seeded on irradiated bone marrow-derived stromal MS5 cells and cultivated for 4 days in DMEM medium containing 15 % Knock-out™ Serum Replacement, non-essential amino acids, beta-mercaptoethanol, and penicillin/streptomycin. At day 5, cells were then re-plated (3 × 10^5 cells/cm^2) on polyornithine-coated 96-well plates in N2 medium containing DMEM, N2 supplement, penicillin/streptomycin, and 10 ng/ml basic human fibroblast growth factor (bFGF) (Invitrogen). […] To assess toxicity of compounds on undifferentiated pluripotent stem cells (ESCs), CGR8-2Luc cells were plated at 45,000 cells/cm^2 on 0.1 % gelatin-coated dishes in BHK21 medium, supplemented with 10 % fetal calf serum, L-glutamine, non-essential amino acids, penicillin/streptomycin, and leukemia inhibitory factor (LIF). After 24 h, compounds were added and incubated for 48 h, before luciferase expression and PI fluorescence were analyzed. In all experiments, methylmercury was used as a positive control at a concentration of 5 µM.
(§3) After measurement of luciferase activity, DNA quantity was determined by PI assay, as previously described (Xu et al. [2014]). PI was added to cell homogenates after the luciferase test, at a final concentration of 50 µg/ml and incubated for 2 h. After incubation, fluorescence intensity was measured on a Flexstation 3 microplate reader (Excitation: 544 nm ± 15 nm; Emission: 620 nm ± 15 nm). Results are expressed as percentage of control. Propidium iodide (PI) measures total DNA content as an approximation of the cell number. A decrease in PI fluorescence was interpreted as a decrease in cell number and therefore throughout the text referred to as cytotoxicity.
(§4) Lowest adverse effect level (LOAEL) was defined as the lowest tested concentrations that lead to a statistically significant decrease for a given read-out (FLuc, RLuc, and PI) compared to baseline. “Baseline” was not in all cases defined by untreated cells, but may also refer to, e.g., a state of increased activity due to low, non-toxic compound concentrations.

[2] = test system: Tubulin α1 (Tα1) promoter; experiment: cells
Description: (§5) Dual luciferase expressing CGR8-2Luc cells were obtained by transduction of mouse ESC CGR8 cells with the 2K7 EFS-Renilla Luciferase (RLuc)/Talpha1-Firefly Luciferase (FLuc) vector as previously described (Suter et al. [2006], [2009]); EFS corresponds to the short promoter of the eukaryotic translation elongation factor 1 alpha (EF1α), and Talpha1 to the Tubulin α1 (Tα1) promoter. Tα1 was selected as a promoter active in neurons, including early stages of neural differentiation. EF1α was originally selected to function as a constitutive promoter; however, it responds to cellular differentiation as well as to various chemicals, as previously shown (Kern et al. [2013]). Cells were cultured on 0.1 % gelatin-coated dishes in CGR8-2luc maintenance medium: BHK21 medium, supplemented with 10 % fetal calf serum, L-glutamine, non-essential amino acids, penicillin/streptomycin, and leukemia inhibitory factor (LIF). CGR8 cells were grown in a feeder-independent manner (embryonic pluripotent stem cells, ESCs) as described in protocol 1 (Fig. 1) before testing compounds of interest.
as §1, §2
(§6) Luciferase activities were measured with a Dual-Luciferase™ Reporter system kit. CGR8-2Luc ES cells were lysed in 96-well plates according to the manufacturer’s instructions. Luminescence measurements were performed on a Fluostar Optima reader. Luminescence counts were expressed as percentage of promoter activity normalized by comparison with the control wells treated by DMSO.

[3] = test system: EF1α promoter
Description: as §5, §1, §2, §6

[4] = test system: ESCs and ESC-derived neurons; experiment: Dual luminescence reporter test system, all readouts in ESCs and ESC-derived neurons
Description: as §1, with “neurons.” for “neurons. CGR8-2Luc cells were co-cultured with MS5 cells to induce neural differentiation in DMEM medium containing 15 % KO-serum, NEAA, β-mercaptoethanol, and P/S. On day 5, cells were detached and seeded on polyornithine-coated plates in DMEM medium containing N2 supplement, bFGF, and P/S; compound exposure was from day 6 to day 8”
as §2, with “At” for “To test compounds on ESC-derived neurons, neuronal differentiation was carried out as previously described (Suter et al. [2009]; Xu et al. [2014]). Briefly, CGR8-2Luc cells were seeded on irradiated bone marrow-derived stromal MS5 cells and cultivated for 4 days in DMEM medium containing 15 % Knock-out™ Serum Replacement, non-essential amino acids, beta-mercaptoethanol, and penicillin/streptomycin. At”
Luciferase activities were measured with a Dual-Luciferase™ Reporter system kit. CGR8-2Luc ES cells were lysed in 96-well plates according to the manufacturer’s instructions. Luminescence measurements were performed on a Fluostar Optima reader. Luminescence counts were expressed as percentage of promoter activity normalized by comparison with the control wells treated by DMSO. […] parameters were measured in homogenates of ESCs and in ESC-derived neurons: (1) FLuc, reflecting the activity of early neural promoter Tα1. FLuc increases during neuronal differentiation. Many neurotoxic compounds may affect FLuc expression, either through impact on neuronal differentiation, through changes of neuronal gene expression, or through killing of neurons.
PI was added to cell homogenates after the luciferase test, at a final concentration of 50 µg/ml and incubated for 2 h. After incubation, fluorescence intensity was measured on a Flexstation 3 microplate reader (Excitation: 544 nm ± 15 nm; Emission: 620 nm ± 15 nm). Results are expressed as percentage of control. Propidium iodide (PI) measures total DNA content as an approximation of the cell number. A decrease in PI fluorescence was interpreted as a decrease in cell number and therefore throughout the text referred to as cytotoxicity.
To describe the shape of different concentration–response curves, arbitrary scores were assigned as follows: 0 for “no change,” 1 for “down-stroke,” 2 for “bimodal profile,” and 3 for “up-stroke” (Fig. S1). A curve was classified as “down-stroke” or “up-stroke” if the change in response values comparative to control was statistically significant (p value <0.05, one-way ANOVA with post hoc Dunnett) with an additional requirement of a 30 % decrease or increase of mean response value relative to controls, respectively. If the absolute change in mean response values was below 30 % the curve was classified as “no change.” A curve was classified as “bimodal” if first up-stroke and subsequently down-stroke was observed.

[5] = cited from earlier work
[6] = Table S1, three classes; ref per compound in the footnotes of Table S1; cited from earlier work
[7] = test system: CGR8-2Luc ESCs
Description: as §1, §2, §3, §4

[8] = test system: Tubulin α1 (Tα1) promoter
Description: as §5, §1, §2, §6

[9] = printed in column Concentration in humans; ref http://pubchem.ncbi.nlm.nih.gov/compound/16682730; cited from earlier work
[10] = test system: rats; settings: rats, gestational days 6–17; ref Australian Therapeutic Goods Administration [2014]; cited from earlier work
[11] = reporter activity changes in the non-cytotoxic concentration range, highest possible number 4
[12] = ESC-derived neurons, 48 h exposure

Clc1cc(Cl)c(-c2cc(Cl)c(Cl)cc2Cl)cc1Cl [PCB-153]
effect on cell number in neurons [1]: without affecting the number of cells | effect on neural promoter activity in neurons [2]: decreased | effect on general promoter activity in neurons [3]: decreased | result in the dual luminescence reporter test system ([4]; ESCs and neurons, FLuc, RLuc, PI): potentially neurotoxic | Number of non-cytotoxic changes [4, 11]: 2 | Concentration in humans (human exposure concentration) ([5]; human exposure concentration, ref Zimmer et al. ([2014])): 0.0003-0.002^k (human exposure concentration) µM | class based on clinical evidence for neurotoxicity [6]: Well-established (developmental)

CC(=O)[O][Hg][c]1ccccc1 [Phenylmercuric acetate]
LOAEL ESC DNA [7]: 0.5 µM | LOAEL Neurons DNA [1]: 0.5 µM | LOAEL Neurons Tα1 [2]: 0.5 µM | LOAEL ESC EF1α [3]: 0.5 µM | LOAEL Neurons EF1α [3]: 0.5 µM | LOAEL ESC Tα1 [8]: 0.5 µM | Number of non-cytotoxic changes [4]: 0 | oral lethal dose [9]: 5–50 mg/kg (oral lethal dose)^i | class based on clinical evidence for neurotoxicity [6]: Possibly (developmental)

O=C1NS(=O)(=O)c2ccccc21 [Saccharin]
LOAEL ESC DNA ([7]; mouse): >50 µM | LOAEL Neurons DNA ([1]; mouse): >50 µM | LOAEL Neurons Tα1 ([2]; mouse): >50 µM | LOAEL ESC EF1α ([3]; mouse): >50 µM | LOAEL Neurons EF1α ([3]; mouse): >50 µM | LOAEL ESC Tα1 ([8]; mouse): >50 µM | result in the dual luminescence reporter test system [4]: negative | Number of non-cytotoxic changes ([4]; mouse, 48 h): 0 | Concentration in humans ([5]; ref Sweatman et al. ([1981])): 218^c µM | class based on clinical evidence for neurotoxicity [6]: Non-neurotoxic

Nc1ccc(S(=O)(=O)Nc2ncccn2)cc1 [Sulfadiazine]
LOAEL ESC DNA ([7]; mouse): >50 µM | LOAEL Neurons DNA ([1]; mouse): >50 µM | LOAEL Neurons Tα1 ([2]; mouse): >50 µM | LOAEL ESC EF1α ([3]; mouse): >50 µM | LOAEL Neurons EF1α ([3]; mouse): >50 µM | LOAEL ESC Tα1 ([8]; mouse): >50 µM | Number of non-cytotoxic changes ([4]; mouse, 48 h): 0 | Concentration in humans ([5]; ref Zimmer et al. ([2014])): 320^k µM | class based on clinical evidence for neurotoxicity [6]: Possibly (developmental)

[CH3][Sn]([CH3])([CH3])[Cl] [Trimethyltin chloride]
LOAEL ESC DNA ([7]; undifferentiated ESCs, 48 h exposure, PI assay (cytotoxicity)): 5 µM | LOAEL Neurons DNA ([1]; ESC-derived neurons, 48 h exposure, PI assay (cytotoxicity)): 5 µM | LOAEL Neurons Tα1 [2, 12]: 5 µM | EF1α promoter LOAEL in neurons [3, 12]: 50 nM | LOAEL Neurons EF1α [3, 12]: 0.05 µM | LOAEL ESC EF1α ([3]; undifferentiated ESCs, 48 h exposure): 5 µM | LOAEL ESC Tα1 ([8]; undifferentiated ESCs, 48 h exposure, lowest tested concentration with statistically significant decrease): 5 µM | Number of non-cytotoxic changes [4, 11]: 1 | class based on clinical evidence for neurotoxicity [6]: Well-established (developmental)

CC(=O)O[C@H]1CC[C@@]2(C)C(=CC[C@@H]3[C@@H]2CC[C@]2(C)C(c4cccnc4)=CC[C@@H]32)C1 [abiraterone acetate]
oral dose inducing developmental toxicity [10]: ≥ 10 mg/kg/day
